IC50 data for five compounds are collected here from ChEMBL document CHEMBL3813604, “Two pairs of farnesyl phenolic enantiomers as natural nitric oxide inhibitors from Ganoderma sinense” (Bioorg Med Chem Lett, 2016).

The assay deals with RAW264.7. As to the kind of experiment: Antiinflammatory activity in mouse RAW264.7 cells assessed as inhibition of LPS-induced nitric oxide production after 24 hrs by Griess assay. Format: functional, cell-based. The note with it: RAW264.7, 24 h.
As for `C/C(=C\CC/C(=C/CCC1=C[C@@H](c2cc(O)ccc2O)OC1=O)CO)COC(=O)/C=C/c1ccc(O)cc1`, the IC50 stood at 1.15 µM.
`CO[C@@]1(c2cc(O)cc(O)c2)C=C(CC/C=C(\CO)CC/C=C(\C)COC(=O)/C=C/c2ccc(O)cc2)C(=O)O1`: the half-maximal inhibitory concentration (IC50) came out at 1.51 µM.
Next, `C/C(=C\CC/C(=C/CCC1=C[C@H](c2cc(O)ccc2O)OC1=O)CO)COC(=O)/C=C/c1ccc(O)cc1`: 1.42 µM; `CO[C@]1(c2cc(O)cc(O)c2)C=C(CC/C=C(\CO)CC/C=C(\C)COC(=O)/C=C/c2ccc(O)cc2)C(=O)O1`: 2.26 µM.
As to `C[C@]12CCC(=O)C=C1CC[C@@H]1[C@@H]2[C@@H](O)C[C@@]2(C)[C@H]1CC[C@]2(O)C(=O)CO` [HYDROCORTISONE], the IC50 turned out to be 58.8 µM.
